One assay deals with asthma. As to the kind of experiment: Patient case examples: asthma. It is filed as in vivo, human. As to the method:
A person with asthma, wherein symptoms are not improving despite receiving treatment with 250 ug beclomethasone taken in combination with an inhaler containing albuterol (when needed) is begun on DMOG at a dose of 20 mg/kg three times per day. Patient's asthma improves.
A person with asthma exacerbated by treatment with budesonide and formoterol at a dose per actuation of 160 and 4.5 mcg, respectively. Patient is begun on DMOG at a dose of 100 mg/kg once per day. Patient's asthma improves. EXAMPLE HI
A person with asthma exacerbated by treatment with fluticasone and salmeterol. Patient is begun on DMOG at a dose of 30 mg/kg twice per day. Patient's asthma improves.
A person with asthma exacerbated wherein symptoms are not improving despite receiving treatment with albuterol. Patient is begun on DMOG at a dose of 25 mg/kg three times per day. Patient's asthma improves.
A person with asthma exacerbated by treatment with budesonide and formoterol at a dose per actuation of 150.0 and 5.0 mcg, respectively. Patient is begun on malonic acid compound at a dose of 120 mg/kg once per day. Patient's asthma improves.

A further assay relates to heart failure. The assay is described as follows: Patient case examples: heart failure (ejection fraction, dyspnea). It is filed as in vivo, human. To be noted: for Ejection fraction / Ejection fraction response: baseline 25%; for Ejection fraction: within one month. As to the method:
The patient is started on nitroglycerin patch (Nitro-bid), 2 inches, twice a day and DMOG at a dose of 100 mg/kg once per day. Ejection fraction improves to 40% within one month.
The patient is started on nitroglycerin patch (Nitro-bid), 2 inches, twice a day and DMOG at a dose of 25 mg/kg three times per day. Ejection fraction improves to 42% within one month.
The patient is started on intravenous nitroglycerin at 20 μg per minute and DMOG at a dose of 50 mg/kg three times per day. Ejection fraction improves to 42% within one month.
A person with heart failure remains short of breath despite increasing doses of nitroglycerin.

A further assay relates to muscle wasting. As to the kind of experiment: Patient case examples: lymphoma and muscle wasting, six minute walk test. In kind it is in vivo, human. As to the method: A person with lymphoma and muscle wasting. Patient is started on carvedilol at 12.5 BID and isosorbide dinitrate at 10 mg POTID. Patient is started on an intravenous formulation of DMOG at a concentration of […]. Patient's strength improves as evidenced by a six minute walk test.
A person with lymphoma and muscle wasting. Patient is started on alprenolol and isosorbide dinitrate. Patient is started on an intravenous formulation of DMOG at a concentration of 20.0 mg/mL. Patient's strength improves as evidenced by a six minute walk test.

A further assay concerns hypertension. The assay is described as follows: Patient case examples: hypertension. It is filed as in vivo, human. As to conditions: for Blood pressure: baseline 180/95 on hydralazine hydrochloride. As to the method: A person with hypertension and not responding to hydralazine hydrochloride (i.e., blood pressure 180/95). […] Patient is begun on DMOG at a dose of 30 mg/kg twice per day. Patient improves (i.e., blood pressure 160/90).
They are started on DMOG at a dose of 30 mg/kg twice per day. Patient improves. No limiting hypertension is noted.
A person with hypertension is not responding to hydralazine hydrochloride (i.e., blood pressure 180/95). […] Patient is begun on DMOG at a dose of 30 mg/kg twice per day. Patient improves (i.e., blood pressure 160/90).

The next assay has as its system unstable angina. The assay is described as follows: Patient case examples: unstable angina with nitroglycerin tolerance. In kind it is in vivo, human. To be noted: IV nitroglycerin tolerance over 48 hours. As to the method:
A person with unstable angina on IV nitroglycerin develops tolerance over 48 hours as evidenced by recurrent chest pains despite increasing doses of drug.
A person with unstable angina on IV nitroglycerin develops tolerance over 48 hours as evidenced by recurrent chest pains despite increasing doses of drug. […] The patient improves.

For assay [1], the system named is Chronic Obstructive Pulmonary Disease. The assay is described as follows: Patient case examples: Chronic Obstructive Pulmonary Disease. It is filed as in vivo, human. As to the method: Patient started on DMOG at a dose of 50 mg/kg three times per day. Patient improves as evidenced by improved spirometry. A patient having Chronic Obstructive Pulmonary Disease, receiving supplemental oxygen and treated with salbutamol and prednisone is started on DMOG at a dose of 20 mg/kg three times per day.

The test system of a further assay is cystic fibrosis. The assay is described as follows: Patient case examples: cystic fibrosis. In kind it is in vivo, human. As to the method:
A person with cystic fibrosis presents with hypoxemia and pulmonary hemorrhage. They are begun on ethyl nitrite 20 parts per million in nitrogen, N-acetylcysteine 50 mg/kg Q 6 hours and ascorbate IV 1 gram Q 6 hours, along with DMOG at a dose of 40 mg/kg three times per day. […] They are discharged on day 7. A person with cystic fibrosis presents with labored breathing and increased sputum production.

The next assay relates to sickle cell disease. As to the kind of experiment: Patient case example: sickle cell disease crisis. To be noted: Example XX; two units of blood, 80 ppm inhaled ethyl nitrite and 100 mg/kg DMOG. In kind it is in vivo, human. As to the method: A person with homozygous sickle cell disease presents in crisis. The patient complains of severe abdominal and chest pain and is somewhat disoriented. They receive two units of blood while being administered 80 ppm inhaled ethyl nitrite and 100 mg/kg of DMOG.

A further assay relates to pulmonary edema. As to the kind of experiment: Patient case examples: pulmonary edema. As to conditions: over the day. It is filed as in vivo, human. As to the method: A person presents complaining of shortness of breath. […] An intravenous line is inserted and the patient is started on IV infusion of […] per kilogram per minute nitroglycerin. They are also given an intravenous formulation of DMOG at a concentration of 10.0 mg/ml. Their symptoms improve over the day, during which time their arteriolar PO2 increases from 70 to 85 mm Hg.
A person presents complaining of shortness of breath. […] The patient is started on intravenous nitroglycerin at 25 μg per minute and DMOG at a dose of 25 mg/kg three times per day. Their symptoms improve over the day, during which time their arteriolar PO2 increases from 60 to 85 mm Hg.

The test system of the next assay is impaired sense of smell. As to the kind of experiment: Patient case example: impaired sense of smell. In kind it is in vivo, human. As to conditions: Example XXIII; after steroidal nasal spray; DMOG nasal spray 1 mg/ml. As to the method: DMOG is administered via nasal spray in amount 1 mg/ml. Patient sense of smell improves.
Assay [2] deals with disorders of EXAMPLES I-XXIV. To be noted: Examples I-XXIV repeated; peptide 10-100 mg orally once-, twice- or three times-daily.
The target of assay [3] is EGLN3 binding to the β2AR (Homo sapiens, UniProt P07550).

Consider `COC(=O)CNC(=O)C(=O)OC` [DMOG, dimethyloxalylglycine], for which the “Patient's asthma” value with asthma (Example I, person not improving on 250 ug beclomethasone + albuterol inhaler, DMOG 20 mg/kg three times per day) was “improves”; with asthma (Example II, person on budesonide/formoterol 160/4.5 mcg, DMOG 100 mg/kg once per day), “improves”; in the assay with asthma (Example III, person on fluticasone and salmeterol, DMOG 30 mg/kg twice per day) it was “improves”; with asthma (Example IV, person not improving on albuterol, DMOG 25 mg/kg three times per day), “improves”. Also, the Ejection fraction was found to be 40% in the assay on heart failure (Example V, on carvedilol, nitroglycerin patch 2 inches twice a day + DMOG 100 mg/kg once per day); 42% with heart failure (Example VI, on carvedilol 50 mg BID, nitroglycerin patch 2 inches twice a day + DMOG 25 mg/kg three times per day); 42% with heart failure (Example VII, on carvedilol 25 mg divided BID, intravenous nitroglycerin 20 μg per minute + DMOG 50 mg/kg three times per day). Further, the “Patient's strength, six minute walk test” value with muscle wasting (Example IX, on alprenolol and isosorbide dinitrate, intravenous DMOG formulation 20.0 mg/mL) is recorded as “improves”; in the assay with muscle wasting (Example VIII, on carvedilol 12.5 BID and isosorbide dinitrate 10 mg, intravenous DMOG formulation 25.0 mg/m) it was “improves”. Besides, the Blood pressure in the assay on hypertension (Example X, propranolol, DMOG 30 mg/kg twice per day) is 160/90; in the assay with hypertension (Example XIII, metoprolol, DMOG 30 mg/kg twice per day), 160/90. Further, the Hypertension response result in the assay with hypertension (Example XI, person after nitropaste, DMOG 30 mg/kg twice per day) is reported as “improves”. Further, the “Response to nitroglycerin after tolerance” value in the assay with unstable angina (Example XII, intravenous DMOG formulation 15.0 mg/mL) is “responds to nitroglycerin”. Moreover, the “Patient outcome, unstable angina” value in the assay on unstable angina (Example XIV, intravenous DMOG formulation 10.0 mg/ml) is “improves”. Further, the “Patient outcome, spirometry” value in [1] (Example XV, after albuterol, DMOG 50 mg/kg three times per day) is given as “improves”. Moreover, the “Need for supplemental oxygen” value in assay [1] (Example XVI, on supplemental oxygen, salbutamol and prednisone, DMOG 20 mg/kg three times per day) was “no longer requires supplemental oxygen”. The Sputum production result with cystic fibrosis (Example XIX, after HNO 10 ppm, DMOG 20 mg/kg three times per day, over two days) is recorded as “decreases in sputum production”. In addition, the “Pulmonary hemorrhage and state of health” value with cystic fibrosis (Example XVIII, ethyl nitrite 20 ppm, N-acetylcysteine 50 mg/kg Q 6 hours, ascorbate IV 1 gram Q 6 hours + DMOG 40 mg/kg three times per day, over three days) was “the hemorrhage stops and the patient reverts to normal state of health”. Besides, in the assay on sickle cell disease, the “Symptoms of sickle cell crisis” value is “All symptoms resolve”. The “Symptoms of pulmonary edema” value in the assay on pulmonary edema (Example XXI, IV nitroglycerin 0.1 mg per kilogram per minute + intravenous DMOG formulation 10.0 mg/ml) is given as “improve”; with pulmonary edema (Example XXII, intravenous nitroglycerin 25 μg per minute + DMOG 25 mg/kg three times per day), “improve”. Besides, the “Arteriolar PO2” value with pulmonary edema (Example XXI, from 70, IV nitroglycerin 0.1 mg per kilogram per minute + intravenous DMOG formulation 10.0 mg/ml) is 85 mm Hg; with pulmonary edema (Example XXII, from 60, intravenous nitroglycerin 25 μg per minute + DMOG 25 mg/kg three times per day), 85 mm Hg. In addition, the Sense of smell entry in the assay with impaired sense of smell was “improves”.

With `N=O` [HNO], the Symptomatic status result in the assay with cystic fibrosis (Example XIX, HNO 10 ppm in nitrogen) is given as “improvements in their symptomatic status”.

Take `N[C@@H](CCC(=O)N[C@@H](CSN=O)C(=O)NCC(=O)O)C(=O)O` [S-nitrosoglutathione]: the Dyspnea and angina result with heart failure (Example XVII, short of breath despite nitroglycerin, S-nitrosoglutathione 0.1 μg/kg/min) is “improvement of dyspnea and relief of angina”.

On to `CC(C)(C)NCC(O)c1ccc(O)c(CO)c1` (stereo not drawn) [albuterol], for which the “Patient outcome, COPD” value in [1] (Example XV, albuterol before DMOG) was “no improvement”.

Regarding `COc1ccccc1OCCNCC(O)COc1cccc2[nH]c3ccccc3c12` (stereo not drawn) [carvedilol], the Ejection fraction response result in the assay on heart failure (Example V, carvedilol before DMOG) is on record as “without ejection fraction improving”; in the assay on heart failure (Example VI, carvedilol 50 mg BID before DMOG), “without ejection fraction improving”; in the assay with heart failure (Example VII, carvedilol 25 mg divided BID before DMOG), “without ejection fraction improving”.

In the case of `O=C(O)CC(=O)O` [malonic acid compound, malonic acid], the “Patient's asthma” value in the assay with asthma (Example XXIV, on budesonide/formoterol 150.0/5.0 mcg, malonic acid compound 120 mg/kg once per day) is “improves”.

`COCCc1ccc(OCC(O)CNC(C)C)cc1` (stereo not drawn) [metoprolol]: in the assay on hypertension (Example XIII, metoprolol before DMOG, blood pressure 180/95), the Hypertension response entry is “without improvement”.

As for `CC(C)NCC(O)COc1cccc2ccccc12` (stereo not drawn) [propranolol], the Hypertension response result in the assay with hypertension (Example X, propranolol before DMOG, blood pressure 180/95) was “without improvement”.

For EAISFLLSLIDRLVLY, the “Patient outcome in each EXAMPLE” value in assay [2] is on record as “exhibits improvement”. Moreover, the “Binding of EGLN3 to the β2AR” value in [3] is “inhibits binding”. Besides, in the assay with β2AR, the “Receptor expression in cells” value is listed as “increases receptor expression”.

Source of the values: patent US20120121720A1, “Modulation of Beta 2 Adrenergic Receptors by Inhibitors of EGLN3 or pVHL” (priority 2009, published 2012).
